# Literature values in US20080057125A1, “STABLE TABLET DOSAGE FORMS OF PROTON PUMP INHIBITORS” (priority 2005, published 2008).
# Read-outs that look alike come from different tables or passages of the source.
# Columns and labels:
# [1] = from commercially marketed dosage forms
# [2] = 25° C.
percent bioavailability [1],degradation half-life in aqueous solution ([2]; pH 5.0),degradation half-life in aqueous solution ([2]; pH 7.0),Structure (SMILES)
30-40%,–,–,"COc1ccc2[nH]c([S+]([O-])Cc3ncc(C)c(OC)c3C)nc2c1 (stereo not shown) [omeprazole, 2-[2-(3,5-dimethyl-4-methoxy)-pyridylmethylsulfinyl]-(5-methoxy)-benzimidazole]"
80-85%,approximately 0.5 hour,approximately 18 hours,"Cc1c(OCC(F)(F)F)ccnc1C[S+]([O-])c1nc2ccccc2[nH]1 (stereo not shown) [Lansoprazole, 2-[[[3-methyl-4-(2,2,2-trifluoroethoxy)-2-pyridyl]methyl]sulfinyl]benzimidazole]"
